Assay results as given in patent US20250171417A1, “HETEROCYCLIC DERIVATIVE, AND COMPOSITION AND PHARMACEUTICAL USE THEREOF” (Xizang Haisco Pharmaceutical Co., Ltd., priority 2021, published 2025).

Key:
[1] = target: T1, AR splice variant 7 (AR-V7) (Homo sapiens, UniProt P10275); experiment: Degradation experiment on AR splice variant 7 (AR-V7) in 22RV1 cells; type: cell-based; conditions: 24 h
T1 construct: host or cells: 22RV1 prostate cancer cells
T1 sequence (P10275 1-644 isoform P10275-3): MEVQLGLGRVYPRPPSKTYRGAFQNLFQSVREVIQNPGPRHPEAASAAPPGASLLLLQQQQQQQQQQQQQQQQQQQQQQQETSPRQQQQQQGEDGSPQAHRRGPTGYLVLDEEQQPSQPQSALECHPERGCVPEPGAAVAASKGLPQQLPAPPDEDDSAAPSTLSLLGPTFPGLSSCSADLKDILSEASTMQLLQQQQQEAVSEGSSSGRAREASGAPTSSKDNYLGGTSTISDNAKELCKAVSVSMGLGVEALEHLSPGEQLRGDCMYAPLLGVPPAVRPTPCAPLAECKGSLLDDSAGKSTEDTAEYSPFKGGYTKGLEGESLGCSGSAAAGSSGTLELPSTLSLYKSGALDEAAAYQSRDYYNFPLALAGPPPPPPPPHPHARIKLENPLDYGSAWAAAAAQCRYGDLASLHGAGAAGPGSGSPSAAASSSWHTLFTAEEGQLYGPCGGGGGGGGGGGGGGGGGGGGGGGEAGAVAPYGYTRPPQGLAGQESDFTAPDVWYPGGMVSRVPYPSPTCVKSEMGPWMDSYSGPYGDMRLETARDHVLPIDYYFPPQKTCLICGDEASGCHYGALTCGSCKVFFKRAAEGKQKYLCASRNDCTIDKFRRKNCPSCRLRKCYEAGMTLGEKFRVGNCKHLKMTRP
Protocol: Prostate cancer cells 22RV1 were purchased from ATCC, the cell medium was 1640+10% FBS, and the cells were cultured in an incubator at 37° C. under 5% CO2. On day 1, the cells in an exponential phase were collected. With a 1% css-FBS phenol red-free medium, the cell suspension was adjusted to a corresponding concentration and plated into a 6-well plate at 1 mL/well and 300000 cells/well. The next day, a 1% css-FBS phenol-free medium containing the compound to be tested was added, a 1% css-FBS phenol-free medium containing 0.2% DMSO was added to one well as DMSO vehicle control, and the 6-well plate was cultured in an incubator at 37° C. under 5% CO2. After 24 h, the cells were digested with pancreatin and collected into a 1.5 mL centrifuge tube. 15 μL of RIPA lysate (containing 1× protease inhibitor cocktail) was added to each well, and the cells were lysed on ice for 15 min and then centrifuged at 12000 g at 4° C.′ for 10 min. The supernatant protein samples were collected, and protein quantification was performed by a BCA method. AR-V7 was detected using fully automatic protein expression quantitative analysis, which involved diluting the protein to be tested to 2 mg/mL, 4 μL of the diluted protein samples were added to 1 μL of 5× Master Mix (provided in the kit), and the prepared samples were denatured at 95° C. for 5 min and placed on ice for use. The primary antibodies. AR V7 (CST, 19672S) and β-actin (CST, 3700), were diluted with Antibody Diluent II (provided in the kit) at a dilution ratio of 1:10 and 1:500, respectively. The secondary antibody was a mixed goat anti-mouse and goat anti-rabbit secondary antibody in a ratio of 1:1, and the color development solution was a mixed solution of Lumino-S and Peroxide in a ratio of 1:1. The prepared reagents were successively added to an assay plate according to instructions of the kit and detected on an instrument. Western blot band processing was performed using “Compass for SW”, a fully automatic protein expression quantitative analysis software, in which western blot bands were automatically simulated based on signal values. The degradation rate of AR-V7 (4) relative to vehicle control at different compound concentrations was calculated according to formula (4), wherein AR-V7compound was the relative peak area of AR-V7 in the treated group, and AR-V7solvent was the relative peak area of AR-V7 in the vehicle control group.
DC50 calculation: the compound concentration DC50 values at which the degradation rate of AR-V7 was 50% were calculated using Graphpad software and analyzed using log (inhibitor) vs. response-Variable slope (four parameters) function according to formula (4).

[2] = tested on: Prostate cancer cells 22RV1; experiment: Experiment on inhibiting 22RV1 cell proliferation (CellTiter-Glo, 7 days); type: cell-based; conditions: Homo sapiens, 168 h, 22RV1 cells, 7 days incubation, cells with nM printed beside the value, read-out: IC50 values for inhibition of 22RVI cells
How it was run: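 22RV1 cells at 2000/well in 1% charcoal-stripped-FBS phenol red-free medium, treated next day with compound for 7 days at 37 °C, 5% CO2. Viability by CellTiter-Glo luminescence; inhibition relative to DMSO vehicle, IC50 from dose-response fit.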

SMILES | DC50 [1] [nM] | IC50 [2] [nM]
N#Cc1nn(C2(C(=O)Nc3ccc(C(F)(F)F)cc3Cl)CCC2)cc1C#CC1CN(c2ccc3c(c2)C(=O)N(C2CCC(=O)NC2=O)C3=O)C1 (stereo not drawn) [Compound 160, N-(2-chloro-4-(trifluoromethyl)phenyl)-1-(3-cyano-4-((1-(2-(2,6-dioxopiperidin-3-yl)-1,3-dioxoisoindolin-5-yl)azetidin-3-yl)ethynyl)-1H-pyrazol-1-yl)cyclobutane-1-carboxamide] | < 500 | < 50
CC(C)(C(=O)Nc1ccc(C#N)cc1C1CC1)n1cc(C#CC2CN(c3ccc4c(c3)C(=O)N(C3CCC(=O)NC3=O)C4=O)C2)cn1 (stereo not drawn) [Compound 39, N-(4-cyano-2-cyclopropylphenyl)-2-(4-((1-(2-(2,6-dioxopiperidin-3-yl)-1,3-dioxoisoindolin-5-yl)azetidin-3-yl)ethynyl)-1H-pyrazol-1-yl)-2-methylpropanamide] | < 500 | < 50
O=C1CCC(N2C(=O)c3ccc(N4CC(C#Cc5cnn(C6(C(=O)Nc7ccc(C(F)(F)F)cc7Cl)CCC6)c5)C4)cc3C2=O)C(=O)N1 (stereo not drawn) [Compound 14, N-(2-chloro-4-(trifluoromethyl)phenyl)-1-(4-((1-(2-(2,6-dioxopiperidin-3-yl)-1,3-dioxoisoindolin-5-yl)azetidin-3-yl)ethynyl)-1H-pyrazol-1-yl)cyclobutane-1-carboxamide] | < 500 | < 50

Continued, values first:

DC50 [1] [nM] | IC50 [2] [nM] | SMILES
< 500 | < 50 | CC(C)(C(=O)Nc1ccc(C#N)c2c1CCCC2)n1cc(C#CC2CN(c3ccc4c(c3)C(=O)N(C3CCC(=O)NC3=O)C4=O)C2)cn1 (stereo not drawn) [Compound 56, N-(4-cyano-5,6,7,8-tetrahydronaphthalen-1-yl)-2-(4-((1-(2-(2,6-dioxopiperidin-3-yl)-1,3-dioxoisoindolin-5-yl)azetidin-3-yl)ethynyl)-1H-pyrazol-1-yl)-2-methylpropanamide]
< 500 | < 50 | Cc1nn(C2(C(=O)Nc3ccc(C(F)(F)F)cc3Cl)CCC2)cc1C#CC1CN(c2ccc3c(c2)C(=O)N(C2CCC(=O)NC2=O)C3=O)C1 (stereo not drawn) [Compound 164, N-(2-chloro-4-(trifluoromethyl)phenyl)-1-(4-((1-(2-(2,6-dioxopiperidin-3-yl)-1,3-dioxoisoindolin-5-yl)azetidin-3-yl)ethynyl)-3-methyl-1H-pyrazol-1-yl)cyclobutane-1-carboxamide]
< 500 | < 50 | CC(C)(C(=O)Nc1ccc(C(F)(F)F)cc1Br)n1cc(C#CC2CN(c3ccc4c(c3)C(=O)N(C3CCC(=O)NC3=O)C4=O)C2)cn1 (stereo not drawn) [Compound 28, N-(2-bromo-4-(trifluoromethyl)phenyl)-2-(4-((1-(2-(2,6-dioxopiperidin-3-yl)-1,3-dioxoisoindolin-5-yl)azetidin-3-yl)ethynyl)-1H-pyrazol-1-yl)-2-methylpropanamide]
